In patent publication US20070173438A1, “[PSI[CH2NH]PG4] glycopeptide antibiotic analogs” (The Scripps Research Institute, priority 2006, published 2007):
≈ marks a conversion by molar mass, not a printed value. Where “and” joins values, the source holds several entries; their conditions need not be identical. Identical values can stand only once.

What was measured:
[1] = test system: VanA Enterococcus faecalis (BM4166); test: antimicrobial assay against VanA resistant organism; type: cell-based; conditions: for potency weaker than vancomycin and its aglycon against sensitive E. faecalis: MIC against VanA BM4166 compared with vancomycin/aglycon MIC against sensitive E. faecalis
Excerpt: (§1) It is the most difficult of the resistant organisms to treat (vs VanB) and characteristic of such organisms, they grow unchallenged enlisting a D-Ala-D-Ala peptidoglycan cell wall precursor, but switch to D-Ala-D-Lac upon glycopeptide treatment.

sensitive E. faecalis = test: antimicrobial activity against sensitive E. faecalis; type: cell-based; conditions: Enterococcus faecalis
Excerpt: as §1

[2] = test system: N,N′-Ac2-Lys-D-Ala-D-Lac (4); conditions: cited from earlier work
[3] = test system: 3 (methylene analogue of Ac2-L-Lys-D-Ala-D-Ala); conditions: cited from earlier work
[4] = test system: enterococci resistant to vancomycin, VanA and VanB; conditions: literature; cited from earlier work
[5] = test system: N,N′-Ac2-Lys-D-Ala-D-Ala (2); test: UV difference titration binding constant with model ligand N,N′-Ac2-Lys-D-Ala-D-Ala; conditions: for Ka, affinity for D-Ala-D-Ala (Ac2-L-Lys-D-Ala-D-Ala, 2): association constant, 0.02 M sodium citrate buffer, Scatchard plot
Method: (§2) Binding Constant Determination. The binding constants for compounds 5 and 41 for association with the model ligands N,N′-Ac2-Lys-D-Ala-D-Ala and N,N′-Ac2-Lys-D-Ala-D-Lac were determined according to literature (Nieto, M.; Perkins, H. R. Biochem. J. 1971, 124, 845; Nieto, M.; Perkins, H. R. Biochem. J. 1971, 124, 773; Nieto, M.; Perkins, H. R. Biochem. J. 1971, 124, 789) protocols. UV difference experiments were carried out on a CARY 3E UV-Vis spectrometer. UV scans were run with a baseline correction that consisted of 0.02 M sodium citrate buffer and covered a range from 200 to 345 nm. A solution of 5 or 41 (1.1×10^−4 M in 0.02 M sodium citrate buffer) was placed into a quartz UV cuvette (1.0 cm path length) and the UV spectrum recorded versus a reference cell containing 0.02 M sodium citrate buffer. UV spectra were recorded after each addition of a solution of N,N′-Ac2-Lys-D-Ala-D-Ala or N,N′-Ac2-Lys-D-Ala-D-Lac in 0.02 M sodium citrate buffer to each cell from 0.1 to 140.0 equivalents. The absorbance value at the λmax was recorded and the running change in absorbance, ΔAx equiv (Ainitial−Ax equiv, ) measured. The number of ligand equivalents was plotted versus ΔA to afford the ligand binding titration curve. The break point of this curve is the saturation point of the system and its xy coordinates determined by establishing the intersection of the linear fits of the pre and postsaturation curves. ΔAsaturation was calculated and employed to determine the concentration of free ligand in solution at each titration. ΔA was plotted versus ΔA/free ligand concentration to give a Scatchard plot from which the binding constants were determined.

[6] = test system: N,N′-Ac2-Lys-D-Ala-D-Lac (4); test: UV difference titration binding constant with model ligand N,N′-Ac2-Lys-D-Ala-D-Lac; conditions: for Ka, affinity for D-Ala-D-Lac (Ac2-L-Lys-D-Ala-D-Lac, 4): association constant, 0.02 M sodium citrate buffer, Scatchard plot
Method: as §2

Row | SMILES | MIC ([1]; Enterococcus faecalis) [µg/mL] | MIC (sensitive E. faecalis) [µg/mL] | reduction of binding to D-Ala-D-Lac ligand versus D-Ala-D-Ala ([2]; literature) [fold] | destabilizing lone pair/lone pair interaction with ester oxygen of 4 ([2]; share of lost binding energy) [kcal/mol] | reduced binding affinity of 4 ([2]; versus 2, total loss) [kcal/mol] | affinity for 3 less than that of 2 ([3]; relative to Ac2-L-Lys-D-Ala-D-Ala (2)) | affinity for 3 greater than that of 4 ([3]; relative to Ac2-L-Lys-D-Ala-D-Lac (4)) [fold] | drop in antimicrobial activity with D-Ala-D-Lac resistant bacteria [4] [fold] | increase in binding affinity for D-Ala-D-Ala, 5 versus 41 ([5]; 5 versus carbamate 41) [fold] | Ka, affinity for D-Ala-D-Ala (Ac2-L-Lys-D-Ala-D-Ala, 2) [5] [M⁻¹] | reduction in affinity for D-Ala-D-Ala relative to the vancomycin aglycon ([5]; relative to vancomycin aglycon) | increase in binding affinity for D-Ala-D-Lac, 5 versus 41 ([6]; 5 versus carbamate 41) [fold] | Ka, affinity for D-Ala-D-Lac (Ac2-L-Lys-D-Ala-D-Lac, 4) [6] [M⁻¹] | increase in affinity for D-Ala-D-Lac relative to the vancomycin aglycon ([6]; relative to vancomycin aglycon) | potency weaker than vancomycin and its aglycon against sensitive E. faecalis [1] | MIC ([1]; VanA E. faecalis BM4166) [µg/mL] | potency relative to vancomycin or its aglycon (more potent) ([1]; VanA E. faecalis BM4166)
1 | CN[C@H](CC(C)C)C(=O)N[C@H]1C(=O)N[C@@H](CC(N)=O)C(=O)N[C@H]2C(=O)N[C@H]3C(=O)N[C@H](C(=O)N[C@H](C(=O)O)c4cc(O)cc(O)c4-c4cc3ccc4O)[C@H](O)c3ccc(c(Cl)c3)Oc3cc2cc(c3O[C@@H]2O[C@H](CO)[C@@H](O)[C@H](O)[C@H]2O[C@H]2C[C@](C)(N)[C@H](O)[C@H](C)O2)Oc2ccc(cc2Cl)[C@H]1O [vancomycin] | 2000 (≈ 1380 µM) | 1 to 2.5 (≈ 0.69 to 1.73 µM) | 1000 | 2.6 | 4.1 | approximately 10 fold | 100 | 1000 |  |  |  |  |  |  |  |  | 
2 | CN[C@H](CC(C)C)C(=O)N[C@H]1C(=O)N[C@@H](CC(N)=O)C(=O)N[C@H]2CN[C@H]3C(=O)N[C@H](C(=O)N[C@H](C(=O)O)c4cc(O)cc(O)c4-c4cc3ccc4O)[C@H](O)c3ccc(c(Cl)c3)Oc3cc2cc(c3O)Oc2ccc(cc2Cl)[C@H]1O [Compound 5, [ψ[CH2NH]Tpg^4]vancomycin aglycon] |  |  |  |  |  |  |  |  | 3 | 4800 | 37 fold and 35 fold | 1.2 | 5200 | 43 fold and 40 fold | roughly 30 fold | 31 (≈ 27.4 µM) | roughly 40 fold
3 | CN[C@H](CC(C)C)C(=O)N[C@H]1C(=O)N[C@@H](CC(N)=O)C(=O)N[C@H]2C(=O)N[C@H]3C(=O)N[C@H](C(=O)N[C@H](C(=O)O)c4cc(O)cc(O)c4-c4cc3ccc4O)[C@H](O)c3ccc(c(Cl)c3)Oc3cc2cc(c3O)Oc2ccc(cc2Cl)[C@H]1O [vancomycin aglycon, reference compound] |  |  |  |  |  |  |  |  |  | 170000 |  |  | 120 |  |  | 640 (≈ 559 µM) | 
4 | CN[C@H](CC(C)C)C(=O)N[C@H]1C(=O)N[C@@H](CC#N)C(=O)N[C@H]2CN(C(=O)OC)[C@H]3C(=O)N[C@H](C(=O)N[C@H](COCOCCOC)c4cc(OC)cc(OC)c4-c4cc3ccc4OC)[C@H](O)c3ccc(c(Cl)c3)Oc3cc2cc(c3OC)Oc2ccc(cc2Cl)[C@H]1O [Compound 41] |  |  |  |  |  |  |  |  |  | 1600 |  |  | 4100 |  | roughly 30 fold | 31 (≈ 23.8 µM) | roughly 40 fold
